Laboratory results published in patent US20040126421A1, “Liposomal system and method of using same” (priority 2002, published 2004).

System: CD8+ T cells recognizing the ova peptide (SIINFEKL)
Assay: IFN-g ELISPOT of lymph node CD8+ T cells after vaccination
Assay type: in vivo, C57BL/6 mice
Procedure: In order to test the potency of the Ubiquisome vaccine, the liposomes of example 1 were used as a vaccine. For vaccination, mice received a single administration of […] of liposomes containing 2.5 mg POPE and approximately […] peptide antigen. The vaccine was injected bilaterally in mouse tibealis anterior muscle ([…] per muscle).
For ELISPOT analysis, mice were sacrificed 5 days following vaccination and inguinal and popliteal lymph nodes were harvested. CD8+ T cells from lymph nodes were isolated using the MACS magnetic cell separation technique. 1×10^5 CD8+ T cells were plated per well in 96 well IP plates. Ova (SIINFEKL, Seq ID No. 3) or irrelevant peptide-pulsed EL4 lymphoma cells were irradiated and plated over CD8+ T cells at density of 10×10^4 cells/well. Following 20 h incubation and assay development, IFN-g secreting cells were visualized as brown spots on the IP membrane.

Substance: monophosphoryl Lipid A [MPL]
- CD8+ T cell response with increasing amounts of MPL in the bilayer: proportionally stronger CD8+ T cell responses
